Several values for one entry are separate records, joined by “and”; a condition that tells them apart may be missing. Identical values can stand only once.
Legend:
Type in all cases: in vivo
[1] = test system: Bromus sterilis; test: greenhouse post-emergence treatment, BROST; details: 20 DAT; for % activity: BROST
Experimental: (§1) The culture containers used were plastic pots containing loamy sand with approximately 3.0% of humus as substrate. The seeds of the test plants were sown separately for each species.
(§2) To this end, the test plants were either sown directly, and grown in the same containers, or they were first grown separately as seedlings and transplanted into the test containers a few days prior to treatment.
(§3) Depending on the species, the plants were kept at 10-25° C. and 20-35° C., respectively.
(§4) The test period extended over 2 to 4 weeks. During this time, the plants were tended and their response to the individual treatments was evaluated.
(§5) Evaluation was carried out using a scale from 0 to 100. 100 means no emergence of the plants, or complete destruction of at least the above-ground parts, and 0 means no damage or normal course of growth. A good herbicidal activity is given at values of at least 70, and very good herbicidal activity is given at values of at least 85.
(§6) In the examples, the solvent used was water.
(§7) In the examples below, using the method of S. R. Colby (1967) “Calculating synergistic and antagonistic responses of herbicide combinations”, Weeds 15, p. […] E=X+Y−(X·Y/100) where X=effect in percent using herbicide A at an application rate a; • Y=effect in percent using herbicide B at application rate b; • E=expected effect (in %) of herbicide A+herbicide B at application rates a+b.

[2] = test system: Galium aparine; test: greenhouse post-emergence treatment, GALAP; details: GALAP, 20 DAT
Experimental: as §1
(§8) For the post-emergence treatment, the test plants were grown to a plant height of from 3 to 15 cm, depending on the plant habit, and only then treated with the active compounds which had been suspended or emulsified in water. To this end, the test plants were either sown directly, and grown in the same containers, or they were first grown separately as seedlings and transplanted into the test containers a few days prior to treatment.
as §3, §4, §5
(§9) The respective stated components A and B, and if appropriate, C were formulated as a 10% by weight strength emulsion concentrate and, with addition of the amount of solvent system, introduced into the spray liquor used for applying the active compound. In the examples, the solvent used was water.
(§10) In the examples below, using the method of S. R. Colby (1967) “Calculating synergistic and antagonistic responses of herbicide combinations”, Weeds 15, p. 22ff., the value E, which is expected if the activity of the individual active compounds is only additive, was calculated. E=X+Y−(X·Y/100) where X=effect in percent using herbicide A at an application rate a; • Y=effect in percent using herbicide B at application rate b; • E=expected effect (in %) of herbicide A+herbicide B at application rates a+b.

[3] = test system: Ambrosia elatior; test: greenhouse post-emergence treatment, AMBEL; details: 20 DAT
Experimental: as §1, §8, §3, §4, §5, §9, §10

[4] = test system: Brachiaria decumbens; test: greenhouse post-emergence treatment, BRADC; details: 20 DAT; for % activity: BRADC
Experimental: as §1, §8, §3, §4, §5, §9, §10

[5] = test system: Matricaria chamomilla; test: greenhouse post-emergence treatment, MATCH; details: MATCH, 20 DAT
Experimental: as §1, §8, §3, §4, §5, §9, §10

[6] = test system: Digitaria sanguinalis; test: greenhouse post-emergence treatment, DIGSA; details: 20 DAT; for % activity: DIGSA
Experimental: as §1, §2, §3, §4, §5, §6, §7

[7] = test system: Papaver rhoeas; test: greenhouse post-emergence treatment, PAPRH; details: 20 DAT
Experimental: as §1, §8, §3, §4, §5, §9, §10

[8] = test system: Lolium multiflorum; test: greenhouse post-emergence treatment, LOLMU; details: 20 DAT; for % activity: LOLMU
Experimental: as §1, §2, §3, §4, §5, §6, §7

[9] = test system: Setaria viridis; test: greenhouse post-emergence treatment, SETVI; details: 20 DAT; for % activity: SETVI
Experimental: as §1, §2, §3, §4, §5, §6, §7

[10] = test system: Avena fatua; test: greenhouse post-emergence treatment, AVEFA; details: Avena fatua, 480 h, 20 DAT
Experimental: as §1, §2, §3, §4, §5, §6, §7

[11] = solo pyroxsulam (SC 30 g/l) 1.875 gai/ha
[12] = solo pyroxsulam (SC 30 g/l) 3.75 gai/ha
[13] = solo pyroxsulam (SC 30 g/l) 7.5 gai/ha

## COc1cc(OC)n2nc(NS(=O)(=O)c3c(C(F)(F)F)ccnc3OC)nc2n1 [pyroxsulam]
[1]; [11]
  % activity: 60%
[1]; pyroxsulam solo 1.875 gai/ha
  % activity: 60%
[1]; pyroxsulam solo 3.75 gai/ha
  % activity: 70%
[1]; pyroxsulam solo 7.5 gai/ha
  % activity: 75%
[2]; [11]
  % activity: 60%
[2]; [12]
  % activity: 65%
[2]; [13]
  % activity: 75%
[2]; pyroxsulam solo 1.875 gai/ha
  % activity: 60%
[2]; pyroxsulam solo 3.75 gai/ha
  % activity: 65%
[2]; pyroxsulam solo 7.5 gai/ha
  % activity: 75%
[2]; pyroxsulam solo 15 gai/ha
  % activity: 90%
[3]; pyroxsulam solo 1.875 gai/ha, AMBEL
  % activity: 70%
[4]; [11]
  % activity: 20%
[4]; pyroxsulam solo 1.875 gai/ha
  % activity: 20%
[4]; pyroxsulam solo 3.75 gai/ha
  % activity: 75%
[5]; [11]
  % activity: 30%
[5]; [12]
  % activity: 60%
[5]; solo pyroxsulam (SC 30 g/l) 15 gai/ha
  % activity: 80%
[5]; pyroxsulam solo 1.875 gai/ha
  % activity: 30%
[5]; pyroxsulam solo 3.75 gai/ha
  % activity: 60%
[5]; pyroxsulam solo 15 gai/ha
  % activity: 80%
[6]; [13]
  % activity: 80%
[6]; pyroxsulam solo 1.875 gai/ha
  % activity: 65%
[6]; pyroxsulam solo 3.75 gai/ha
  % activity: 75%
[6]; pyroxsulam solo 7.5 gai/ha
  % activity: 80%
[7]; PAPRH, solo pyroxsulam (SC 30 g/l) 1.875 gai/ha
  % activity: 0%
[7]; PAPRH, solo pyroxsulam (SC 30 g/l) 3.75 gai/ha
  % activity: 0%
[7]; PAPRH, solo pyroxsulam (SC 30 g/l) 7.5 gai/ha
  % activity: 30%
[7]; PAPRH, solo pyroxsulam (SC 30 g/l) 15 gai/ha
  % activity: 70%
[7]; pyroxsulam solo 1.875 gai/ha, PAPRH
  % activity: 0%
[7]; pyroxsulam solo 3.75 gai/ha, PAPRH
  % activity: 0%
[7]; pyroxsulam solo 7.5 gai/ha, PAPRH
  % activity: 30%
[7]; pyroxsulam solo 15 gai/ha, PAPRH
  % activity: 70%
[8]; pyroxsulam solo 1.875 gai/ha
  % activity: 60% and 80%
[8]; pyroxsulam solo 3.75 gai/ha
  % activity: 65%
[8]; pyroxsulam solo 7.5 gai/ha
  % activity: 80%
[9]; [11]
  % activity: 75%
[9]; pyroxsulam solo 1.875 gai/ha
  % activity: 75%

## CCS(=O)(=O)c1nc2ccccn2c1S(=O)(=O)NC(=O)Nc1nc(OC)cc(OC)n1 [sulfosulfuron]
[1]; Bromus sterilis, 480 h, sulfosulfuron solo 1.5 gai/ha
  inhibition at […]: 0%
[1]; Bromus sterilis, 480 h, sulfosulfuron solo 3 gai/ha
  inhibition at 3 g/ha: 50%
[1]; Bromus sterilis, 480 h, sulfosulfuron solo 12 gai/ha
  inhibition at 12 g/ha: 70%
[2]; Galium aparine, 480 h, solo sulfosulfuron (WG 80%) 1.5 gai/ha
  pest or weed control at […]: 65%
[2]; Galium aparine, 480 h, solo sulfosulfuron (WG 80%) 3 gai/ha
  pest or weed control at 3 g/ha: 85%
[3]; Ambrosia artemisiifolia, 480 h, sulfosulfuron solo 1.5 gai/ha
  inhibition at […]: 70%
[4]; Urochloa decumbens, 480 h, sulfosulfuron solo 1.5 gai/ha
  inhibition at […]: 20%
[4]; Urochloa decumbens, 480 h, sulfosulfuron solo 12 gai/ha
  inhibition at 12 g/ha: 80%
[6]; Digitaria sanguinalis, 480 h, sulfosulfuron solo 1.5 gai/ha
  inhibition at […]: 0%
[6]; Digitaria sanguinalis, 480 h, sulfosulfuron solo 3 gai/ha
  inhibition at 3 g/ha: 20%
[6]; Digitaria sanguinalis, 480 h, sulfosulfuron solo 12 gai/ha
  inhibition at 12 g/ha: 65%
[10]; sulfosulfuron solo 1.5 gai/ha
  inhibition at […]: 0%
[10]; sulfosulfuron solo 3 gai/ha
  inhibition at 3 g/ha: 0%
[7]; Papaver rhoeas, 480 h, sulfosulfuron solo 1.5 gai/ha
  inhibition at […]: 25%
[7]; Papaver rhoeas, 480 h, sulfosulfuron solo 3 gai/ha
  inhibition at 3 g/ha: 80%
[7]; Papaver rhoeas, 480 h, PAPRH, solo sulfosulfuron (WG 80%) 1.5 gai/ha
  pest or weed control at […]: 25%
[8]; Lolium multiflorum, 480 h, sulfosulfuron solo 1.5 gai/ha
  inhibition at […]: 0%
[8]; Lolium multiflorum, 480 h, sulfosulfuron solo 3 gai/ha
  inhibition at 3 g/ha: 0%
[8]; Lolium multiflorum, 480 h, sulfosulfuron solo 6 gai/ha
  inhibition at 6 g/ha: 10%
[8]; Lolium multiflorum, 480 h, sulfosulfuron solo 12 gai/ha
  inhibition at 12 g/ha: 35%
[9]; Setaria viridis, 480 h, sulfosulfuron solo 1.5 gai/ha
  inhibition at […]: 50%
[9]; Setaria viridis, 480 h, sulfosulfuron solo 6 gai/ha
  inhibition at 6 g/ha: 65%
[9]; Setaria viridis, 480 h, sulfosulfuron solo 12 gai/ha
  inhibition at 12 g/ha: 75%
